Experimental data published in patent US6369107B1, “Combined use of diclofenac and tribenoside to treat osteoarthritis” (KS Biomedix Ltd., priority 1994, dated 2002).
“And” between values parts separate entries of the source, which are not always exact repeats. Equal values may be shown once.

Assays:
monoamine oxidase (MAO) [1] = details: mice given the drug; background, Chambers et al 1992; cited from earlier work
STR/ORT mice [2] = test: Development of osteoarthritis / cartilage damage in STR/ORT mice; assay type: in vivo; details: fraction of mice
Description: The present invention is based on the postulate that two influences are involved in the development of OA: a cellular and an extracellular factor.

STR/ORT mice [3] = details: mice given the drug; background; cited from earlier work
[4] = system: matrix of cartilages of the tibial plateau of STR/ORT mice; test: Quantitative interference microscopy of dry mass per unit area in the tibial plateau cartilage matrix of treated STR/ORT mice; assay type: in vivo; details: for effect on the dry mass per unit area (and therefore water content) of medial cartilage: feeding STR/ORT mice
Description: The extra-cellular factor was studied by quantitative interference microscopy, as described by Ross, “Phase Contrast and Interference Microscopy for Cell Biologists” Arnold: London, p.36 (1967). This form of microscopy allows the investigator to measure the dry mass, per unit area (Cs), in selected regions of a section or of a cell. This measurement then allows the assessment of water content (Cw): […]

monoamine oxidase (MAO) [5] = test: Localisation of monoamine oxidase (MAO) activity in chondrocytes of potentially osteoarthritic cartilage of mice; assay type: in vivo; details: feeding STR/ORT mice
Description: In normal articular cartilage (human as well as murine), monoamine oxidase in chondrocytes can be found located precisely in mitochondria. During the development of the natural disease in mice, these granules become larger and apparently burst, the monoamine oxidase (MAO) activity becomes distributed through the cytoplasm of the chondrocytes and even into the surrounding matrix. This was described by Chambers et al, Int. J. Exp. Path. 73:115-123 (1992), who related the MAO activity in the medial as against that in the (normal) lateral cartilage in untreated mice and in those treated with diclofenac.
There was no sign of activity in the general cytoplasm or in the matrix.
Results are shown in Table 1, i.e. the dry mass per μm in the matrix of cartilages of the tibial plateau of STR/ORT mice after various treatments. Three mice were treated with diclofenac (Df) alone, four with tribenoside (Tb) alone, and four with both (Df+Tb).

[6] = STR/ORT mice, matrix of tibial plateau cartilage, one line per mouse, * duplicate sections

| Compound | localisation of the MAO in the potentially osteoarthritic cartilage (monoamine oxidase (MAO) [1]) | mice having severe OA (STR/ORT mice [2]) | development of OA (STR/ORT mice [3]) | Mass pg/unit area in the medial cartilage [4, 6] | effect on the dry mass per unit area (and therefore water content) of medial cartilage [4] | localisation of MAO activity / MAO activity in the medial cartilage (monoamine oxidase (MAO) [5]) | Mass pg/unit area in the lateral cartilage [4, 6] [pg/unit area] |
| --- | --- | --- | --- | --- | --- | --- | --- |
| O=C(O)Cc1ccccc1Nc1c(Cl)cccc1Cl [Df, diclofenac sodium] | marked improvement | at least 9/10 | did not stop the development of OA | 0.51 pg/unit area and 0.50 pg/unit area and 0.52 pg/unit area | no effect |  |  |
| CCOC1O[C@H]([C@@H](COCc2ccccc2)OCc2ccccc2)[C@H](OCc2ccccc2)[C@H]1O (stereo partly drawn) [Tb, tribenoside] |  |  |  | 2.54 pg/unit area and 2.76 pg/unit area and 2.58 pg/unit area and 2.77 pg/unit area and 2.29 pg/unit area and 2.44 pg/unit area and 3.14 pg/unit area | markedly increased | did not improve | 2.84 |
